Experimental data from PubChem BioAssay (NCI).
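Grown in 96-well plates, cells were treated for 48 hours with each compound at five concentrations. Insufficient inhibition: endpoint recorded as highest concentration tested. Abbreviation: GI50, concentration required for 50% inhibition of growth. Definition used: TGI = concentration required for complete inhibition of growth.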

Columns and labels:
Assay in all cases: DTP human tumour cell line panel, 48 h
[1] = test system: K-562 leukemia
[2] = test system: OVCAR-8 ovarian
[3] = test system: HCT-116 colon
[4] = test system: CCRF-CEM leukemia
[5] = test system: HL-60(TB) leukemia
[6] = test system: NCI-H226 lung
[7] = test system: UO-31 renal
[8] = test system: RXF 393 renal
[9] = test system: MDA-MB-231 breast
[10] = test system: HT29 colon
[11] = test system: PC-3 prostate
[12] = test system: HOP-92 NSCLC
[13] = test system: SK-MEL-5 melanoma
[14] = test system: 786-0 renal
[15] = test system: SF-539 CNS
[16] = test system: UACC-62 melanoma
[17] = test system: SK-OV-3 ovarian
[18] = test system: RPMI-8226 leukemia
[19] = test system: OVCAR-3 ovarian
[20] = test system: BT-549 breast
[21] = test system: HCT-15 colon
[22] = test system: DU-145 prostate
[23] = test system: NCI-H460 lung
[24] = test system: SW-620 colon
[25] = test system: M14 melanoma
[26] = test system: UACC-257 melanoma
[27] = test system: MALME-3M melanoma
[28] = test system: SNB-75 CNS
[29] = test system: SK-MEL-2 melanoma

O=C(Nc1ccc(-n2ccc3c(NC(=O)c4ccccc4)ncnc32)cc1)c1ccc(Cl)c(C(F)(F)F)c1
GI50 [1]: 0.42 µM
TGI [1]: > 35 µM
GI50 [2]: 2.1 µM
GI50 [3]: 0.536 µM
TGI [3]: 7.26 µM
GI50 [4]: 0.849 µM
TGI [4]: 18.2 µM
GI50 [5]: 4.99 µM
TGI [5]: > 52.8 µM
GI50 [6]: 6.58 µM
TGI [6]: 25.1 µM
GI50 [7]: 7.13 µM
TGI [7]: 23.7 µM
GI50 [8]: 4.74 µM
TGI [8]: 15.4 µM
GI50 [9]: 1.93 µM
TGI [9]: 11.5 µM
GI50 [10]: 0.752 µM
TGI [10]: 6.16 µM
GI50 [11]: 3.57 µM
TGI [11]: 14.7 µM
GI50 [12]: 8.16 µM
TGI [12]: 25.7 µM
GI50 [13]: 0.603 µM
TGI [13]: 15.1 µM
GI50 [14]: 5.02 µM
TGI [14]: 23.6 µM
GI50 [15]: 3.63 µM
TGI [15]: > 54.7 µM
GI50 [16]: 0.947 µM
TGI [16]: 12.2 µM
GI50 [17]: 11.1 µM
TGI [17]: 25.5 µM
GI50 [18]: 1.63 µM
TGI [18]: 29 µM
GI50 [19]: 3.44 µM
TGI [19]: 9.37 µM
GI50 [20]: 15.1 µM
TGI [20]: 48.8 µM
GI50 [21]: 0.116 µM
TGI [21]: 6.77 µM
GI50 [22]: 1.48 µM
TGI [22]: 8.46 µM
GI50 [23]: 0.204 µM
TGI [23]: 4.8 µM
GI50 [24]: 1.29 µM
TGI [24]: 6.21 µM
GI50 [25]: 1.37 µM
TGI [25]: 9.47 µM
GI50 [26]: 5.17 µM
TGI [26]: 24.5 µM
GI50 [27]: 6.41 µM
TGI [27]: 21.2 µM
GI50 [28]: 1.55 µM
TGI [28]: 11.4 µM
GI50 [29]: 2.36 µM
TGI [29]: 8.68 µM
